We go through 28 compounds from patent US9944647B2 (Incyte Corporation, priority 2015, dated 2018).

In this test the target is LSD-1 enzyme (Homo sapiens (Human), UniProt O60341). Briefly: LANCE LSD1/KDM1A demethylase assay (LSD1 histone demethylase biochemical assay). As to conditions: 1 nM LSD-1 enzyme, 1 hour preincubation at 25° C., Biotin-labeled Histone H3 peptide substrate. As for the experimental part:
Example A: LSD1 Histone Demethylase Biochemical Assay
LANCE LSD1/KDM1A demethylase assay—10 μL of 1 nM LSD-1 enzyme (ENZO BML-SE544-0050) in the assay buffer (50 mM Tris, pH 7.5, 0.01% Tween-20, 25 mM NaCl, 5 mM DTT) were preincubated for 1 hour at 25° C. with 0.8 μL compound/DMSO dotted in black 384 well polystyrene plates. […] Reactions were stopped by addition of 10 μL 1×LANCE Detection Buffer (PerkinElmer CR97-100) supplemented with 1.5 nM Eu-anti-unmodified H3K4 Antibody (PerkinElmer TRF0404), and 225 nM LANCE Ultra Streptavidin (PerkinElmer TRF102) along with 0.9 mM Tranylcypromine-HCl (Millipore 616431). After stopping the reactions plates were incubated for 30 minutes and read on a PHERAstar FS plate reader (BMG Labtech).
The compound `CCN1CCC[C@@H](COc2nc(-c3ccc(C#N)cc3)c(-c3ccc4c(c3)oc(=O)n4C)c3nccn23)C1` [Example 55, 4-[5-{1[(3R)-1-ethylpiperidin-3-yl]methoxy}-8-(3-methyl-2-oxo-2,3-dihydro-1,3-benzoxazol-6-yl)imidazo[1,2-c]pyrimidin-7-yl]benzonitrile] displayed an IC50 of at most 50 nM.

In the case of `COc1ccc(-c2c(-c3ccc(C#N)cc3)nc(OC[C@@H]3CCCN(CCO)C3)n3ccnc23)cn1` [Example 56, 4-[5-{[(3R)-1-(2-hydroxyethyl)piperidin-3-yl]methoxy}-8-(6-methoxypyridin-3-yl)imidazo[1,2-c]pyrimidin-7-yl]benzonitrile], the half-maximal inhibitory concentration (IC50) is at most 50 nM.

`COc1ncc(-c2c(-c3ccc(C#N)cc3)nc(OC[C@@H]3CCCN(CCO)C3)n3ccnc23)cc1F` [Example 57, 4-(8-(5-fluoro-6-methoxypyridin-3-yl)-5-{[(3R)-1-(2-hydroxyethyl)piperidin-3-yl]methoxy}imidazo[1,2-c]pyrimidin-7-yl)benzonitrile] displayed a half-inhibitory concentration (IC50) of at most 50 nM.

`CN(C)C1CCN(c2nc(-c3ccc(C#N)cc3)c(-c3cc(F)c4c(c3)oc(=O)n4C)c3nccn23)CC1` [Example 58, 4-[5-[4-(dimethylamino)piperidin-1-yl]-8-(4-fluoro-3-methyl-2-oxo-2,3-dihydro-1,3-benzoxazol-6-yl)imidazo[1,2-c]pyrimidin-7-yl]benzonitrile] gave a concentration for half-maximal inhibition (IC50) of at most 50 nM.

`CN1CCC[C@@H](COc2nc(-c3ccc(C#N)cc3)c(-c3cc(F)c4c(c3)oc(=O)n4C)c3nccn23)C1` [Example 59, 4-(8-(4-fluoro-3-methyl-2-oxo-2,3-dihydro-1,3-benzoxazol-6-yl)-5-{[(3R)-1-methylpiperidin-3-yl]methoxy}imidazo[1,2-c]pyrimidin-7-yl)benzonitrile] displayed a concentration for half-maximal inhibition (IC50) of at most 50 nM.

In turn, `CN(C)C1CCN(c2nc(-c3ccc(C#N)cc3)c(-c3cnc4c(c3)oc(=O)n4C)c3nccn23)CC1` [Example 60, 4-[5-[4-(dimethylamino)piperidin-1-yl]-8-(3-methyl-2-oxo-2,3-dihydro[1,3]oxazolo[4,5-b]pyridin-6-yl)imidazo[1,2-c]pyrimidin-7-yl]benzonitrile] registered an IC50 of at most 50 nM.

Take `CN1CCC[C@@H](COc2nc(-c3ccc(C#N)cc3)c(-c3cnc4c(c3)oc(=O)n4C)c3nccn23)C1` [Example 61, 4-(8-(3-methyl-2-oxo-2,3-dihydro[1,3]oxazolo[4,5-b]pyridin-6-yl)-5-{[(3R)-1-methylpiperidin-3-yl]methoxy}imidazo[1,2-c]pyrimidin-7-yl)benzonitrile]: the half-maximal inhibitory concentration (IC50) is 50 to 500 nM.

Compound `CN1C(=O)Cc2cc(-c3c(-c4ccc(C#N)cc4)nc(N4CCC(N(C)C)CC4)n4ccnc34)ccc21` [Example 62, 4-[5-[4-(dimethylamino)piperidin-1-yl]-8-(1-methyl-2-oxo-2,3-dihydro-1H-indol-5-yl)imidazo[1,2-c]pyrimidin-7-yl]benzonitrile] had a half-maximal inhibitory concentration (IC50) of at most 50 nM.

In turn, `Cc1nc2cc(-c3c(-c4ccc(C#N)cc4)nc(N4CCC(N(C)C)CC4)n4ccnc34)ccc2n1C` [Example 63, 4-[5-[4-(dimethylamino)piperidin-1-yl]-8-(1,2-dimethyl-1H-benzimidazol-5-yl)imidazo[1,2-c]pyrimidin-7-yl]benzonitrile] showed a concentration for half-maximal inhibition (IC50) of at most 50 nM.

In turn, `CN1CCC[C@@H](COc2nc(-c3ccc(C#N)cc3)c(-c3ccc4c(c3)nc(C(F)F)n4C)c3nccn23)C1` [Example 64, 4-(8-[2-(difluoromethyl)-1-methyl-1H-benzimidazol-5-yl]-5-{[(3R)-1-methylpiperidin-3-yl]methoxy}imidazo[1,2-c]pyrimidin-7-yl)benzonitrile] gave a concentration for half-maximal inhibition (IC50) of at most 50 nM.

In turn, `Cc1nc2cc(-c3c(-c4ccc(C#N)cc4)nc(OC[C@@H]4CCCN(C)C4)n4ccnc34)ccc2n1C` [Example 65, 4-(8-(1,2-dimethyl-1H-benzimidazol-5-yl)-5-{[(3R)-1-methylpiperidin-3-yl]methoxy}imidazo[1,2-c]pyrimidin-7-yl)benzonitrile] displayed a 50% inhibitory concentration (IC50) of at most 50 nM.

Take `Cc1ncc(-c2c(-c3ccc(C#N)cc3)nc(N3CCC(N(C)C)CC3)n3ccnc23)cc1C#N` [Example 66, 5-{7-(4-cyanophenyl)-5-[4-(dimethylamino)piperidin-1-yl]imidazo[1,2-c]pyrimidin-8-yl}-2-methylnicotinonitrile]: the 50% inhibitory concentration (IC50) was in the range of 50 to 500 nM.

As to `COC(=O)N(C)c1ccc(-c2c(-c3ccc(C#N)cc3)nc(N3CCC(N(C)C)CC3)n3ccnc23)cn1` [Example 67], the IC50 lay in the range of 50 to 500 nM.

`Cc1cc(-c2c(-c3ccc(C#N)cc3)nc(N3CCC(N(C)C)CC3)n3ccnc23)cnc1C` [Example 68, 4-[5-[4-(dimethylamino)piperidin-1-yl]-8-(5,6-dimethylpyridin-3-yl)imidazo[1,2-c]pyrimidin-7-yl]benzonitrile]: the half-inhibitory concentration (IC50) is at most 50 nM.

`COc1ncc(-c2c(-c3ccc(C#N)cc3)nc(OC[C@@H]3CCCN(C)C3)n3ccnc23)cc1C` [Example 69, 4-(8-(6-methoxy-5-methylpyridin-3-yl)-5-{[(3R)-1-methylpiperidin-3-yl]methoxy}imidazo[1,2-c]pyrimidin-7-yl)benzonitrile]: the IC50 is at most 50 nM.

On to `Cc1ncc(-c2c(-c3ccc(C#N)cc3)nc(OC[C@@H]3CCCN(C)C3)n3ccnc23)cc1C#N` [Example 70, 5-(7-(4-cyanophenyl)-5-{[(3R)-1-methylpiperidin-3-yl]methoxy}imidazo[1,2-c]pyrimidin-8-yl)-2-methylnicotinonitrile], for which the IC50 was at most 50 nM.

The compound `Cc1ccc(-c2c(-c3ccc(C#N)cc3)nc(OC[C@@H]3CCCN(C)C3)n3ccnc23)cc1CO` [Example 71, 4-(8-[3-(hydroxymethyl)-4-methylphenyl]-5-{[(3R)-1-methylpiperidin-3-yl]methoxy}imidazo[1,2-c]pyrimidin-7-yl)benzonitrile] yielded an IC50 of at most 50 nM.

`Cc1ccc(-c2c(-c3ccc(C#N)cc3)nc(OC[C@@H]3CCCN(C)C3)n3ccnc23)c(CO)c1` [Example 72, 4-(8-[2-(hydroxymethyl)-4-methylphenyl]-5-{[(3R)-1-methylpiperidin-3-yl]methoxy}imidazo[1,2-c]pyrimidin-7-yl)benzonitrile] returned an IC50 of at most 50 nM.

Compound `Cc1ccc(-c2c(-c3ccc(C#N)cc3)nc(OC[C@@H]3CCCN(C)C3)n3ccnc23)cn1` [Example 73, 4-[5-{[(3R)-1-methylpiperidin-3-yl]methoxy}-8-(6-methylpyridin-3-yl)imidazo[1,2-c]pyrimidin-7-yl]benzonitrile] came in with an IC50 of 50 to 500 nM.

For the compound `Cc1ncc(-c2c(-c3ccc(C#N)cc3)nc(OC[C@@H]3CCCN(C)C3)n3ccnc23)cc1F` [Example 74, 4-(8-(5-fluoro-6-methylpyridin-3-yl)-5-{[(3R)-1-methylpiperidin-3-yl]methoxy}imidazo[1,2-c]pyrimidin-7-yl)benzonitrile], the IC50 is 50 to 500 nM.

Turning to `COC(=O)N(C)c1ccc(-c2c(-c3ccc(C#N)cc3)nc(OC[C@@H]3CCCN(C)C3)n3ccnc23)cc1F` [Example 75], the 50% inhibitory concentration (IC50) was in the range of 50 to 500 nM.

In turn, `CN1CCC[C@@H](COc2nc(-c3ccc(C#N)cc3)c(-c3ccc4c(c3)OC(C(=O)N(C)C)CO4)c3nccn23)C1` (stereo partly drawn) [Example 76, 7-(7-(4-cyanophcnyl)-5-{[(3R)-1-methylpiperidin-3-yl]methoxy}imidazo[1,2-c]pyrimidin-8-yl)-N,N-dimethyl-2,3-dihydro-1,4-benzodioxine-2-carboxamide] came in with a 50% inhibitory concentration (IC50) of at most 50 nM.

`CN1CCC[C@@H](COc2nc(-c3ccc(C#N)cc3)c(-c3cnc4c(c3)CCN4C)c3nccn23)C1` [Example 77, 4-(8-(1-mcthyl-2.3-dihydro-1H-pyrrolo[2,3-b]pyridin-5-yl)-5-{[(3R)-1-methylpiperidin-3-yl]methoxy}imidazo[1,2-c]pyrimidin-7-yl)benzonitrile]: the IC50 was at most 50 nM.

The compound `CN1CCC[C@@H](COc2nc(-c3ccc(C#N)cc3)c(-c3cnc4c(c3)CCCN4C)c3nccn23)C1` [Example 78, 4-[5-{[(3R)-1-methylpiperidin-3-yl]methoxy}-8-(8-methyl-5,6,7,8-tetrahydro-1,8-naphthyridin-3-yl)imidazo[1,2-c]pyrimidin-7-yl]benzonitrile] came in with a 50% inhibitory concentration (IC50) of at most 50 nM.

`CN1CCC[C@@H](COc2nc(-c3ccc(C#N)cc3)c(-c3ccc4c(c3)N(C)C(=O)CC4)c3nccn23)C1` [Example 79, 4-(8-(1-methyl-2-oxo-1,2,3,4-tetrahydroquinolin-7-yl)-5-{[(3R)-1-methylpiperidin-3-yl]methoxy}imidazo[1,2-c]pyrimidin-7-yl)benzonitrile] gave an IC50 of 50 to 500 nM.

Compound `CN1CCC[C@@H](COc2nc(-c3ccc(C#N)cc3)c(-c3ccc(CN4CCOCC4)c(F)c3)c3nccn23)C1` [Example 80, 4-(8-[3-fluoro-4-(morpholin-4-ylmethyl)phenyl]-5-{[(3R)-1-methylpiperidin-3-yl]methoxy}imidazo[1,2-c]pyrimidin-7-yl)benzonitrile] had an IC50 of at most 50 nM.

The compound `COc1ncc(-c2c(-c3ccc(C#N)cc3)nc(OC[C@@H]3CCCN(CCC#N)C3)n3ccnc23)cc1F` [Example 81, 4-[5-{[(3R)-1-(2-cyanoethyl)piperidin-3-yl]methoxy}-8-(5-fluoro-6-methoxypyridin-3-yl)imidazo[1,2-c]pyrimidin-7-yl]benzonitrile] returned a half-inhibitory concentration (IC50) of 50 to 500 nM.

With `CN(C)c1ncc(-c2c(-c3ccc(C#N)cc3)nc(N3CCC(N(C)C)CC3)n3ccnc23)cc1F` [Example 82, 4-{8-[6-(dimethylamino)-5-fluoropyridin-3-yl]-5-[4-(dimethylamino)piperidin-1-yl]imidazo[1,2-c]pyrimidin-7-yl}benzonitrile], the 50% inhibitory concentration (IC50) is at most 50 nM.

Usually IC50 stands for the midpoint of a concentration-inhibition curve. A lower IC50 goes with higher potency.
